# Data: patent US20160214958A1, “COMPOUNDS AND USE FOR TREATING CANCER” (GLIONOVA AB, priority 2013, published 2016)
# Legend:
# human fibroblasts = test: Viability (ATP) of fibroblasts in presence of S10; type: cell-based; details: Fibroblast
# Method: The ability of Examples S1-S23 to selectively induce cytotoxicity in glioma/glioblastoma cancer cells or glioma/glioblastoma cancer stem cells was determined by quantification of ATP production in glioma stem cell line U3013 in the presence of using CellTiterGlo reagent (Promega). Cells were exposed to compound in serial dilution in the range 1 nM to 50 µM for 24 hours and viability assessed with respect to negative control (dmso, no cell death) and positive control (staurosporine, full cell death). […] The EC50 of S10 remained largely similar at 2, 3 and 4 days of incubation. […] The individual isomers (S21-S23) of racemic S10 were evaluated in order to determine the enantiospecific pharmacology of the individual isomers.
# For measuring cell viability, cytotoxicity and apoptosis in GSC/fibroblast/mGlia cells were grown in 384-well microtiter plates using procedure described above. […] Cell viability, cytotoxcity and apoptosis were measured using CellTiter-Glo® Luminescent Cell Viability Assay (Promega), CytoTox-Glo Cytotoxicity Assay and […], according to manufacturer's instructions. […] Luminescence was measured using a Victor3 FA (Perkin Elmer) microtiterplate reader and the level of released Caspase 3/7 quantified relative to control using GraphPad Prism (v6.02) software.
# U3013MG GSC xenograft = test: Mouse Kaplan-Meier experiment, oral S10 at terminal stage of GBM; type: in vivo, NOD-SCID mice; details: 20 mg/kg per orally for five days
# Method: The bioavailability of S10 by oral and intraperitoneal injection in vivo was investigated. […] In a second delivery regimen, treatment was performed per orally (20 mg/kg) twice daily for five days. Treatment started at a terminal stage of GBM, i.e. six weeks after engraftment of U3013M GSCs and median survival from the time of treatment initiation and the Hazard ratio were scored.
# For Kaplan-Meier experiments, 100,000 GSC from U3013MG we injected into NOD-SCID mice as described above. Mice were then monitored for 6 weeks and then oral administration regiment was started. Mice were either given 200 μl of water or S10 in water corresponding to 20 mg/kg, via oral gavage. A total of nine animals were taken for each treatment (control, S10). The oral administration was followed once a day for five days following which the administration was stopped and the animals monitored till they reach the humane end point, after which they were sacrificed.
# [1] = system: U3013MG GSCs injected into brain ventricle; test: Zebrafish xenograft in vivo efficacy assay
# Method: A xenotransplantation model for GBM in zebrafish was developed to test the capacity of the 17 hits to prevent tumor formation in vivo. Three thousand U3013MG GSCs labeled with cell tracker red were injected intracranially into the ventricle of 48-52 hpf larvae. Each of the 17 hits were administered to the egg water at the lowest effective in vitro cytotoxic concentration identified and tumor development assessed 10 days later. This assay allowed rapid evaluation of the compounds in an in vivo setup, features such as the acute/chronic toxicity effect of the compounds on zebrafish and the transplanted cells, transplanted cell proliferation and migration of cells into brain parenchyma, compounds penetrance into the zebrafish tissue were all parallely evaluated. […] Cardiovascular toxicity was assessed using a recently established model based on frequency spectral analysis of heart beating in ex-vivo adult zebrafish hearts (Kitambi et al., (2012) BMC Physiol. 12, 3).
# The zebrafish xenografts glioblastoma model was developed for quantitative analyses on the efficacy of S10 to inhibit tumor development and for quantification of infiltration of cells in the host brain. […] The size of the tumor was determined by quantification of the area, fluorescence level and infiltration by measuring the average distance of infiltrating cells from the original tumor mass. […]
smiles,measurement,setting,value
"OC(c1cc(-c2ccc(Cl)cc2)nc2ccccc12)C1CCCCN1 (racemic) [Compound S10, (2-(4-chlorophenyl)quinolin-4-yl)(piperidin-2-yl)methanol]",EC50,human fibroblasts; after 24 hrs,18.7 µM
same,EC50,human fibroblasts; at 96 hours,23 µM
same,Hazard ratio (rate of death untreated vs S10 treated group),U3013MG GSC xenograft; comparison of the two survival curves,2.293
same,median survival from the time of treatment initiation,"U3013MG GSC xenograft; start six weeks after engraftment, n=9, DMSO treated animals 7 days",12 days
same,tumor growth,[1]; 15 μM applied to the aquarium water for 10 days,marked attenuation of tumor growth
same,tumor size,"[1]; lowest effective in vitro cytotoxic concentration in egg water, assessed 10 days later",markedly reduced tumor size
